What was measured:
Type in all cases: biochemical
baculoviral GST-MLK2KDLZ = molecular target: T1, baculoviral GST-MLK2KDLZ (Homo sapiens, UniProt Q02779); assay: Mixed Lineage Kinase-2 inhibition assay (Millipore Multiscreen plate, 32P); conditions: 1 uM compound, 100 μM ATP; for inhibition at 1 µM: read-out: MLK-2 Kinase % inhibition @ 1 uM
T1 construct: 3 μg/ml of baculoviral GST-MLK2KDLZ; GST (N); host or cells: baculovirus expression system
Procedure: Inhibition of Mixed Lineage Kinase-2 Activity
(§1) Assays were performed using the Millipore Multiscreen plate format as described for MLK1. Each 50-μl assay mixture contained 20 mM Hepes, pH 7, 1 mM EGTA, 10 mM MgCl2, 1 mM DTT, 25 mM β-glycerophosphate, 100 μM ATP, 0.25 μCi [γ-^32P]ATP, 0.1% BSA, 500 μg/ml myelin basic protein (UBI #13-104), 2% DMSO, various concentrations of test compound, and 3 μg/ml of baculoviral GST-MLK2KDLZ. Samples were incubated for 15 min. at 37° C. The reaction was stopped by adding ice cold 50% TCA and the proteins were allowed to precipitate for 30 min at 4° C. The plates were then washed with ice cold 25% TCA Supermix scintillation cocktail was added, and the plates were allowed to equilibrate for 1-2 hours prior to counting.

baculoviral GST-MLK3KD = molecular target: T2, baculoviral GST-MLK3KD (Homo sapiens, UniProt Q16584); assay: Mixed Lineage Kinase-3 inhibition assay (Millipore Multiscreen plate, 32P); conditions: 1 uM compound, 100 μM ATP; for inhibition at 1 µM: read-out: MLK-3 Kinase % inhibition @ 1 uM
T2 construct: 2 μg/ml of baculoviral GST-MLK3KD; GST (N); host or cells: baculovirus expression system
T2 sequence (Q16584 117-379 limits assumed): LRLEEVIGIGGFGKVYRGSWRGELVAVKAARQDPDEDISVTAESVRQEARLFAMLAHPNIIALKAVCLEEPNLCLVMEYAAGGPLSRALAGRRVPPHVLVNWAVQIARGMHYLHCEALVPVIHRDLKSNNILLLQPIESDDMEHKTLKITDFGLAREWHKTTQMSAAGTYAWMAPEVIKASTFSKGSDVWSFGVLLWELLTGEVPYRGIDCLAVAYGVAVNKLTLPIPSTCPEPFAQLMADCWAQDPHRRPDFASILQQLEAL
Procedure: Inhibition of Mixed Lineage Kinase-3 Activity
as §1, with “MLK1. Briefly, each” for “MLK1. Each”, “and 2” for “and 3”, “baculoviral GST-MLK3KD.” for “baculoviral GST-MLK2KDLZ.”, “15 min” for “15 min.”, “25% TCA.” for “25% TCA”

[1] = molecular target: T3, recombinant human baculoviral VEGFR2 cyctoplasmic domain (Homo sapiens, UniProt P35968); assay: VEGFR2 kinase inhibition assay (ELISA-based, time-resolved fluorescence); conditions: 1 uM compound, 30 μM ATP; for inhibition at 1 µM: read-out: VEGFR-2 kinase % inhibition @ 1 uM
T3 construct: recombinant human baculoviral VEGFR2 cyctoplasmic domain; host or cells: baculovirus expression system
T3 sequence (P35968 786-1356 limits assumed): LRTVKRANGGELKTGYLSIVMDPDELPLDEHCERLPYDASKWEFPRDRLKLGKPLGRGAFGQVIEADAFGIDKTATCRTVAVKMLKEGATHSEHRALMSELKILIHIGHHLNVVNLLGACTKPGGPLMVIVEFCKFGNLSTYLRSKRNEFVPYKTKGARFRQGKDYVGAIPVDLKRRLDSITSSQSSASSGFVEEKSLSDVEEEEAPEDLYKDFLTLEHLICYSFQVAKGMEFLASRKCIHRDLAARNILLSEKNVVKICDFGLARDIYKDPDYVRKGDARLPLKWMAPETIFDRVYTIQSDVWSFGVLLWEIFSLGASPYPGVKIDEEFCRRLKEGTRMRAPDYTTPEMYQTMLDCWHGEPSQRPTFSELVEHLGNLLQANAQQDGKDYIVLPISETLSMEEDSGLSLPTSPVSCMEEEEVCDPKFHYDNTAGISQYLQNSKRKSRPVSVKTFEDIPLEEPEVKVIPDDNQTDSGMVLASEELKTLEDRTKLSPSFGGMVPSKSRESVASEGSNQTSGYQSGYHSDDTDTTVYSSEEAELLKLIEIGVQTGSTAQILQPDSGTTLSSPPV
Procedure: Inhibition of Vascular Endothelial Growth Factor Receptor-2 Kinase Activity
Assay were performed as described for trkA kinase below. The 96-well microtiter plate (FluoroNUNC Maxisorp) was coated with 40 μg/ml recombinant human phospholipase C-γ1/glutathione S-transferase fusion protein. Inhibition studies were performed in 100 μl assay mixtures containing 50 mM HEPES, pH 7.4, 30 μM ATP, 10 mM MnCl2, 0.1% BSA, 2% DMSO, and 1 μM of test compound. The reaction was initiated by adding prephosphorylated recombinant human baculoviral VEGFR2 cyctoplasmic domain. The reaction was allowed to proceed for 15 minutes at 37° C. The detection antibody, eurpium-labeled anti-phosphotyrosine antibody (Wallac #CR04-100), was added at 1:5000 dilution in block buffer (3% BSA in TBST).

T1 sequence (Q02779 98-440 limits assumed): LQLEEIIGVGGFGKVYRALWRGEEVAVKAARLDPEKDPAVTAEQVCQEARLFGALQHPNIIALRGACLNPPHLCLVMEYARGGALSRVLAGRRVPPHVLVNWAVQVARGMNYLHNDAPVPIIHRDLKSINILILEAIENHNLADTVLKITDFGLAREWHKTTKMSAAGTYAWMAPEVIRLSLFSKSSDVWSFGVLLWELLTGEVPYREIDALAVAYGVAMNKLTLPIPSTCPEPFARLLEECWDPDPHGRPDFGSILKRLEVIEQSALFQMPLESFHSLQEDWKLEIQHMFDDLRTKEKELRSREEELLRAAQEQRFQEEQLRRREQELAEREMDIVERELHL

SMILES	MLK-2 Kinase % inhibition @ 1 uM (baculoviral GST-MLK2KDLZ)	MLK-3 Kinase % inhibition @ 1 uM (baculoviral GST-MLK3KD)	VEGFR-2 kinase % inhibition @ 1 uM [1]	inhibition at 1 µM [1]	inhibition at 1 µM (baculoviral GST-MLK2KDLZ)	inhibition at 1 µM (baculoviral GST-MLK3KD)
Cc1cc(C)c(C=C2C(=O)NN=C2c2ccoc2)[nH]1 [Compound 1]	7%	28%				
Cc1cc(C)c(C=C2C(=O)NN=C2C2c3ccccc3Oc3ccccc32)[nH]1 [Compound 2]	−10%	−11%	21%			
Cc1cc(C)c(C=C2C(=O)NN=C2c2ccncc2)[nH]1 [Compound 3]	−1%	12%	39%			
O=C1NN=C(c2ccoc2)C1=CC=C(c1ccccc1)c1ccccc1 [Compound 4]	−10%	−6%	33%			
CCc1c(C=C2C(=O)NN=C2c2ccoc2)[nH]c(C(=O)OCc2ccccc2)c1C [Compound 5]	9%	−9%	−5%			
Cc1c(I)[nH]c(C=C2C(=O)NN=C2c2ccoc2)c1I [Compound 6]	6%	3%	9%			
CCOC(=O)CCc1c(C(=O)OCC)[nH]c(C=C2C(=O)NN=C2c2ccoc2)c1CC(=O)OCC [Compound 7]	−12%	7%	−3%			
Cc1[nH]c(C=C2C(=O)NN=C2c2ccoc2)c(Br)c1Br [Compound 8]	0%	10%	35%			
O=C1NN=C(c2ccoc2)C1=Cc1c[nH]c2ccccc12 [Compound 9]	15%	27%	49%			
Cc1cc(C)c(C=C2C(=O)NN=C2c2cccnc2)[nH]1 [Compound 10]	−9%	44%	64%			
COc1ccc2[nH]cc(C=C3C(=O)NN=C3c3ccoc3)c2c1 [Compound 11]	7%	31%	50%			
O=C1NN=C(c2ccoc2)C1=Cc1ccc[nH]1 [Compound 12]	−7%	29%	26%			
Cc1nc(C)c(C2=NNC(=O)C2=Cc2c[nH]c3ccccc23)s1 [Compound 13]	−17%	17%	25%			
Cc1cc(C)c(C=C2C(=O)NN=C2c2sc(C)nc2C)[nH]1 [Compound 14]	−18%	14%	13%			
O=C1NN=C(c2ccoc2)C1=Cc1ncc[nH]1 [Compound 15]	−12%	−17%	11%			
COC(=O)c1ccc2[nH]cc(C=C3C(=O)NN=C3c3ccoc3)c2c1 [Compound 16]	7%	12%	34%			
O=C1NN=C(c2ccoc2)C1=Cc1c[nH]c2ccc(Cl)cc12 [Compound 17]	−8%	19%	48%			
O=C1NN=C(c2ccoc2)C1=Cc1c[nH]c2cccc(OCc3ccccc3)c12 [Compound 18]	−2%	47%	12%			
O=C1NN=C(c2ccoc2)C1=Cc1c[nH]c2ccc(F)cc12 [Compound 19]	−5%	11%	44%			

SMILES	MLK-2 Kinase % inhibition @ 1 uM (baculoviral GST-MLK2KDLZ)	MLK-3 Kinase % inhibition @ 1 uM (baculoviral GST-MLK3KD)	VEGFR-2 kinase % inhibition @ 1 uM [1]	inhibition at 1 µM [1]	inhibition at 1 µM (baculoviral GST-MLK2KDLZ)	inhibition at 1 µM (baculoviral GST-MLK3KD)
Cn1cc(C=C2C(=O)NN=C2c2ccoc2)c2ccccc21 [Compound 20]	−3%	57%	67%			
O=C1NN=C(c2ccoc2)C1=Cc1c[nH]c2ccc(OCc3ccccc3)cc12 [Compound 21]	−13%	24%	12%			
Cc1cccc2c(C=C3C(=O)NN=C3c3ccoc3)c[nH]c12 [Compound 22]	−13%	24%	41%			
Cc1cc(C)c(C=C2C(=O)NN=C2c2ccn(C)c2)[nH]1 [Compound 23]	−6%	69%	7%			
Cn1ccc(C2=NNC(=O)C2=Cc2c[nH]c3ccccc23)c1 [Compound 24]	4%	38%	32%			
O=C1NN=C(c2nccs2)C1=Cc1c[nH]c2ccccc12 [Compound 25, 4-(indol-3-ylmethylene)-3-(1,3-thiazol-2-yl)-2-pyrazolin-5-one]				64%	-4%	48%
Cc1cc(C)c(C=C2C(=O)NN=C2c2nccs2)[nH]1 [Compound 26, 4-[(3,5-dimethylpyrrol-2-yl)methylene]-3-(1,3-thiazol-2-yl)-2 pyrazolin-5-one]					-7%	57%
Cc1cc(C)c(C=C2C(=O)NN=C2c2c(C)coc2C)[nH]1 [Compound 27]	−4%	44%	40%			
Cc1cc(C)c(C=C2C(=O)NN=C2c2ccco2)[nH]1 [Compound 28, 4-[(3,5-dimethylpyrrol-2-yl)methylene]-3-(2-furyl)-2-pyrazolin-5-one]				80%	10%	50%
O=C1NN=C(c2ccco2)C1=Cc1c[nH]c2ccccc12 [Compound 29, 3-(2-furyl)-4-(indol-3-ylmethylene)-2-pyrazolin-5-one]				68%	2%	38%
Cc1cc(C)c(C=C2C(=O)NN=C2c2ccccn2)[nH]1 [Compound 30]	1%	46%	68%			
Cn1ccc(C2=NNC(=O)C2=Cc2c[nH]c3cccc(OCc4ccccc4)c23)c1 [Compound 31]	0%	49%	16%			
Cn1ccc(C2=NNC(=O)C2=Cc2c[nH]c3ccc(F)cc23)c1 [Compound 32]	−14%	42%	47%			
Cc1ccc2c(C=C3C(=O)NN=C3c3ccn(C)c3)c[nH]c2c1 [Compound 33]	−13%	28%	25%			
Cc1cccc2c(C=C3C(=O)NN=C3c3ccn(C)c3)c[nH]c12 [Compound 34]	1%	32%	32%			
Cn1ccc(C2=NNC(=O)C2=Cc2c[nH]c3ccc(Cl)cc23)c1 [Compound 35]	−15%	34%	19%			
Cc1cc(C)c(C=C2C(=O)NN=C2c2cc(C)oc2C)[nH]1 [Compound 36]	−18%	25%	27%			
Cn1cc(C=C2C(=O)NN=C2c2nccs2)c2ccccc21 [Compound 60]	9%	58%				
Cc1cc(C)c(C=C2C(=O)NN=C2c2cnccn2)[nH]1 [Compound 74, 4-[(3,5-dimethylpyrrol-2-yl)methylene]-3-pyrazin-2-yl-2-pyrazolin-5-one]					17%	72%

— patent US6831075B2, “Heterocyclic substituted pyrazolones” (Cephalon, Inc., priority 1999, dated 2004)
